Results: patent US20120060243A1, “Herbicide-Resistant AHAS-Mutants and Methods of Use” (priority 2008, published 2012)
Where two headings read alike, the source gives them in different places.

What was measured:
Type in all cases: in vivo, Brassica napus
[1] = test system: BnCL131A1 (He), A122T-S653N (He); conditions: 18 Days After Treatment, line BnCL131A1 (He); for Mean Percent Crop Phytotoxicity (% Crop Injury): field, 2-4 leaf stage
Excerpt: (§1) Hand-crossed hybrids were produced in the greenhouse between two IMI-tolerant spring Brassica napus parental lines: “BnCL131A1” (homozygous for the A genome IMI-tolerant mutation AHASL1A-A122(At)T-S653(At)N) and “PM1PM2” (homozygous for the A genome AHAS-inhibitor tolerant mutation AHASL1A-W574(At)L (PM2) plus the C genome AHAS-inhibitor tolerant mutation AHASL1C-S653(At)N(PM1)). The resulting heterozygous hand-crossed hybrid line, “PM1PM2/BnCL131A 1” (heterozygous for the stacked mutations: AHASL1A-A122(At)T-S653(At)N, AHASL1A-W574(At)L (PM2), AHASL1C-S653(At)N(PM1)) was field tested together with lines each containing only one AHAS-inhibitor tolerant mutation (homozygous or heterozygous) and several spring Brassica napus checks.
(§2) The three repetition trial was conducted in Simcoe, N. Dak., and used a randomized split block design. The trial was designed to measure the percent phytotoxicity (% crop injury) of the different entries under 5 different imidazolinone herbicide treatment rates. Plants were sprayed at the 2-4 leaf stage at a volume of 100 liters/ha. The imidazolinone herbicide rates used were as follows (Imazamox=BEYOND™ 120 g/I LC (BAS 72001H); NIS=INDUCE™ 90 (90% non-ionic surfactant; Helena Chemical Co., Collierville, Tenn.):
(§3) Crop Injury Ratings were determined in the field by assessing each plot in the trial for the level of phytotoxicity (percent crop injury) on a scale from 0-100% at 18 days after treatment. Mean values for each entry across the three replications along with their statistical significance (ANOVA) are presented in Table 6 (Ho=homozygous; He=heterozygous). Each value presented in Table 6 is the mean of three replications.
(§4) The percent phytotoxicity (% crop injury) ratings were transposed into Herbicide Tolerance ratings by subtracting the percent crop injury rating (Table 6) for each line from 100% to obtain the percent herbicide tolerance (Table 7) (Ho=homozygous; He=heterozygous).

[2] = test system: PM2 (AHASL1A-PM2), W574L (Ho); conditions: 18 Days After Treatment, line PM2 (AHASL1A-PM2); for Mean Percent Crop Phytotoxicity (% Crop Injury): field, 2-4 leaf stage
Excerpt: as §1, §2, §3, §4

[3] = test system: AHASL1A-S653N, S653N (Ho); conditions: 18 Days After Treatment, line AHASL1A-S653N; for Mean Percent Crop Phytotoxicity (% Crop Injury): field, 2-4 leaf stage
Excerpt: as §1, §2, §3, §4

[4] = test system: AHASL1A-A122T, A122T (Ho); conditions: 18 Days After Treatment, line AHASL1A-A122T; for Mean Percent Crop Phytotoxicity (% Crop Injury): field, 2-4 leaf stage
Excerpt: as §1, §2, §3, §4

[5] = test system: BnCL131A1 (Ho), A122T-S653N (Ho); conditions: 18 Days After Treatment, line BnCL131A1 (Ho); for Mean Percent Crop Phytotoxicity (% Crop Injury): field, 2-4 leaf stage
Excerpt: as §1, §2, §3, §4

[6] = test system: PM1PM2/BnCL131A1, S653N (He), W574L (He)/A122T-S653N (He); conditions: for Mean Percent Crop Phytotoxicity (% Crop Injury): field, 2-4 leaf stage; for Expected Additive % Herbicide Tolerance: sum of BnCL131A1 (He) + PM2 (AHASL1A-PM2) + PM1 (AHASL1C-PM1)
Excerpt: as §1, §2, §3, §4

[7] = test system: Bn WT 2; experiment: Field trial crop phytotoxicity, Simcoe; conditions: 18 Days After Treatment, line Bn WT 2; for Mean Percent Crop Phytotoxicity (% Crop Injury): field, 2-4 leaf stage
Excerpt: as §1, §2, §3, §4

[8] = test system: PM1 (AHASL1C-PM1), S653N (Ho); experiment: Field trial crop phytotoxicity, Simcoe; conditions: 18 Days After Treatment, line PM1 (AHASL1C-PM1); for Mean Percent Crop Phytotoxicity (% Crop Injury): field, 2-4 leaf stage
Excerpt: as §1, §2, §3, §4

[9] = mean over 0, 35, 70, 140, 210 g ai/ha (N 15)

For `COCc1cnc(C2=NC(C)(C(C)C)C(=O)N2)c(C(=O)O)c1` (centres unmarked) [imazamox], the “Mean Percent Crop Phytotoxicity (% Crop Injury)” value ([1]; 35 g ai/ha + 0.25% (v/v) NIS) was 33.33%, the “Mean Percent Herbicide Tolerance (100% minus percent crop injury)” value ([1]; 35 g ai/ha) was 66.7% and the “Mean Percent Crop Phytotoxicity (% Crop Injury)” value ([1]; 70 g ai/ha + 0.25% (v/v) NIS) was 60%. For the same compound, the “Mean Percent Herbicide Tolerance (100% minus percent crop injury)” value ([1]; 70 g ai/ha) was 40.0%, the “Mean Percent Crop Phytotoxicity (% Crop Injury)” value ([1]; 140 g ai/ha + 0.25% (v/v) NIS) was 80% and the “Mean Percent Herbicide Tolerance (100% minus percent crop injury)” value ([1]; 140 g ai/ha) was 20.0%. For the same compound, the “Mean Percent Crop Phytotoxicity (% Crop Injury)” value ([1]; 210 g ai/ha + 0.25% (v/v) NIS) was 73.33%, the “Mean Percent Herbicide Tolerance (100% minus percent crop injury)” value ([1]; 210 g ai/ha) was 26.7% and the “Mean Percent Crop Phytotoxicity (% Crop Injury), Mean over rates” value [1, 9] was 49.33%. The “Mean Percent Crop Phytotoxicity (% Crop Injury)” value ([2]; 35 g ai/ha + 0.25% (v/v) NIS) was 36.67%, the “Mean Percent Herbicide Tolerance (100% minus percent crop injury)” value ([2]; 35 g ai/ha) was 63.3% and the “Mean Percent Crop Phytotoxicity (% Crop Injury)” value ([2]; 70 g ai/ha + 0.25% (v/v) NIS) was 46.67%. For the same compound, the “Mean Percent Herbicide Tolerance (100% minus percent crop injury)” value ([2]; 70 g ai/ha) was 53.3%, the “Mean Percent Crop Phytotoxicity (% Crop Injury)” value ([2]; 140 g ai/ha + 0.25% (v/v) NIS) was 83.33% and the “Mean Percent Herbicide Tolerance (100% minus percent crop injury)” value ([2]; 140 g ai/ha) was 16.7%. For the same compound, the “Mean Percent Crop Phytotoxicity (% Crop Injury)” value ([2]; 210 g ai/ha + 0.25% (v/v) NIS) was 80%, the “Mean Percent Herbicide Tolerance (100% minus percent crop injury)” value ([2]; 210 g ai/ha) was 20.0% and the “Mean Percent Crop Phytotoxicity (% Crop Injury), Mean over rates” value [2, 9] was 49.33%. For the same compound, the “Mean Percent Crop Phytotoxicity (% Crop Injury)” value ([3]; 70 g ai/ha + 0.25% (v/v) NIS) was 78.33%, the “Mean Percent Herbicide Tolerance (100% minus percent crop injury)” value ([3]; 70 g ai/ha) was 21.7% and the “Mean Percent Crop Phytotoxicity (% Crop Injury)” value ([3]; 210 g ai/ha + 0.25% (v/v) NIS) was 90%. The “Mean Percent Herbicide Tolerance (100% minus percent crop injury)” value ([3]; 210 g ai/ha) was 10.0%, the “Mean Percent Crop Phytotoxicity (% Crop Injury), Mean over rates” value [3, 9] was 64.33% and the “Mean Percent Crop Phytotoxicity (% Crop Injury)” value ([4]; 35 g ai/ha + 0.25% (v/v) NIS) was 70%. For the same compound, the “Mean Percent Herbicide Tolerance (100% minus percent crop injury)” value ([4]; 35 g ai/ha) was 30.0%, the “Mean Percent Crop Phytotoxicity (% Crop Injury)” value ([4]; 70 g ai/ha + 0.25% (v/v) NIS) was 78.33% and the “Mean Percent Herbicide Tolerance (100% minus percent crop injury)” value ([4]; 70 g ai/ha) was 21.7%. The “Mean Percent Crop Phytotoxicity (% Crop Injury)” value ([4]; 210 g ai/ha + 0.25% (v/v) NIS) was 70%, the “Mean Percent Herbicide Tolerance (100% minus percent crop injury)” value ([4]; 210 g ai/ha) was 30.0% and the “Mean Percent Crop Phytotoxicity (% Crop Injury), Mean over rates” value [4, 9] was 57%. For the same compound, the “Mean Percent Crop Phytotoxicity (% Crop Injury)” value ([5]; 35 g ai/ha + 0.25% (v/v) NIS) was 16.67%, the “Mean Percent Herbicide Tolerance (100% minus percent crop injury)” value ([5]; 35 g ai/ha) was 83.3% and the “Mean Percent Crop Phytotoxicity (% Crop Injury)” value ([5]; 70 g ai/ha + 0.25% (v/v) NIS) was 31.67%. For the same compound, the “Mean Percent Herbicide Tolerance (100% minus percent crop injury)” value ([5]; 70 g ai/ha) was 68.3%, the “Mean Percent Crop Phytotoxicity (% Crop Injury)” value ([5]; 140 g ai/ha + 0.25% (v/v) NIS) was 43.33% and the “Mean Percent Herbicide Tolerance (100% minus percent crop injury)” value ([5]; 140 g ai/ha) was 56.7%. The “Mean Percent Crop Phytotoxicity (% Crop Injury)” value ([5]; 210 g ai/ha + 0.25% (v/v) NIS) was 55%, the “Mean Percent Herbicide Tolerance (100% minus percent crop injury)” value ([5]; 210 g ai/ha) was 45.0% and the “Mean Percent Crop Phytotoxicity (% Crop Injury), Mean over rates” value [5, 9] was 29.33%. For the same compound, the “Mean Percent Crop Phytotoxicity (% Crop Injury)” value ([6]; 35 g ai/ha + 0.25% (v/v) NIS, 18 Days After Treatment, line PM1PM2/BnCL131A1) was 8.33%, the “Mean Percent Herbicide Tolerance (100% minus percent crop injury)” value ([6]; 35 g ai/ha, 18 Days After Treatment, line PM1PM2/BnCL131A1) was 91.7% and the “Mean Percent Crop Phytotoxicity (% Crop Injury)” value ([6]; 70 g ai/ha + 0.25% (v/v) NIS, 18 Days After Treatment, line PM1PM2/BnCL131A1) was 15%. For the same compound, the “Mean Percent Herbicide Tolerance (100% minus percent crop injury)” value ([6]; 70 g ai/ha, 18 Days After Treatment, line PM1PM2/BnCL131A1) was 85.0%, the “Mean Percent Crop Phytotoxicity (% Crop Injury)” value ([6]; 140 g ai/ha + 0.25% (v/v) NIS, 18 Days After Treatment, line PM1PM2/BnCL131A1) was 21.67% and the “Mean Percent Herbicide Tolerance (100% minus percent crop injury)” value ([6]; 140 g ai/ha, 18 Days After Treatment, line PM1PM2/BnCL131A1) was 78.3%. The “Expected Additive % Herbicide Tolerance” value ([6]; 140 g ai/ha) was 45%, the “Expected Additive % Herbicide Tolerance” value ([6]; 140 g ai/ha, listed as Beyond) was 45.0% and the “Mean Percent Crop Phytotoxicity (% Crop Injury)” value ([6]; 210 g ai/ha + 0.25% (v/v) NIS, 18 Days After Treatment, line PM1PM2/BnCL131A1) was 15%. The “Mean Percent Herbicide Tolerance (100% minus percent crop injury)” value ([6]; 210 g ai/ha, 18 Days After Treatment, line PM1PM2/BnCL131A1) was 85%, the “Mean Percent Herbicide Tolerance (100% minus percent crop injury)” value ([6]; 210 g ai/ha, 18 Days After Treatment, line PM1PM2/BnCL131A1, listed as Beyond) was 85.0% and the “Expected Additive % Herbicide Tolerance” value ([6]; 210 g ai/ha) was 55%. For the same compound, the “Expected Additive % Herbicide Tolerance” value ([6]; 210 g ai/ha, listed as Beyond) was 55.0%, the “Mean Percent Crop Phytotoxicity (% Crop Injury), Mean over rates” value ([6]; mean over 0, 35, 70, 140, 210 g ai/ha (N 15), 18 Days After Treatment, line PM1PM2/BnCL131A1) was 12% and the “Mean Percent Crop Phytotoxicity (% Crop Injury)” value ([7]; 35 g ai/ha + 0.25% (v/v) NIS) was 95%. For the same compound, the “Mean Percent Herbicide Tolerance (100% minus percent crop injury)” value ([7]; 35 g ai/ha) was 5.0%, the “Mean Percent Crop Phytotoxicity (% Crop Injury)” value ([7]; 70 g ai/ha + 0.25% (v/v) NIS) was 100% and the “Mean Percent Herbicide Tolerance (100% minus percent crop injury)” value ([7]; 70 g ai/ha) was 0.0%. The “Mean Percent Crop Phytotoxicity (% Crop Injury)” value ([7]; 140 g ai/ha + 0.25% (v/v) NIS) was 100%, the “Mean Percent Herbicide Tolerance (100% minus percent crop injury)” value ([7]; 140 g ai/ha) was 0.0% and the “Mean Percent Crop Phytotoxicity (% Crop Injury)” value ([7]; 210 g ai/ha + 0.25% (v/v) NIS) was 100%. The “Mean Percent Herbicide Tolerance (100% minus percent crop injury)” value ([7]; 210 g ai/ha) was 0.0%, the “Mean Percent Crop Phytotoxicity (% Crop Injury), Mean over rates” value [7, 9] was 79% and the “Mean Percent Crop Phytotoxicity (% Crop Injury)” value ([8]; 35 g ai/ha + 0.25% (v/v) NIS) was 66.67%. For the same compound, the “Mean Percent Herbicide Tolerance (100% minus percent crop injury)” value ([8]; 35 g ai/ha) was 33.3%, the “Mean Percent Crop Phytotoxicity (% Crop Injury)” value ([8]; 70 g ai/ha + 0.25% (v/v) NIS) was 86.67% and the “Mean Percent Herbicide Tolerance (100% minus percent crop injury)” value ([8]; 70 g ai/ha) was 13.3%. For the same compound, the “Mean Percent Crop Phytotoxicity (% Crop Injury)” value ([8]; 140 g ai/ha + 0.25% (v/v) NIS) was 91.67%, the “Mean Percent Herbicide Tolerance (100% minus percent crop injury)” value ([8]; 140 g ai/ha) was 8.3% and the “Mean Percent Crop Phytotoxicity (% Crop Injury)” value ([8]; 210 g ai/ha + 0.25% (v/v) NIS) was 91.67%. For the same compound, the “Mean Percent Herbicide Tolerance (100% minus percent crop injury)” value ([8]; 210 g ai/ha) was 8.3% and the “Mean Percent Crop Phytotoxicity (% Crop Injury), Mean over rates” value [8, 9] was 67.33%.
